Test results published in US9840478B2 (MERCK SHARP & DOHME CORP., priority 2013, dated 2017).

These compounds were tested on HIV-1 (H9IIIB strain) (assay: Cell-based HIV infection assay using a reporter (Cell-Based), MT4-GFP cells). Details: Human immunodeficiency virus 1, MT4-GFP cells infected with HIV-1 H9IIIB; 50% normal human serum; mean of at least two independent experiments; read-out: Cell-based IP.
Outline: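 MT4-GFP cells (HIV LTR-driven GFP) infected 24 h with HIV-1 H9IIIB at low MOI, then washed and plated with compounds in RPMI + 50% normal human serum, 0.4% DMSO final. Green cells counted at 24 and 48 h; R0 = 48 h/24 h ratio, inhibition normalized to DMSO and triple-drug control; IC50 from 4-parameter fit.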

Row | SMILES | IC50 [nM]
1 | COC(=O)N[C@H](C(=O)Nc1cncc(F)c1CC[C@H]1CNC[C@@H](C)N1S(=O)(=O)c1ccc(OC(F)(F)F)cc1)[C@@H](c1ccc(F)cc1)c1cc(F)cc(F)c1 [Example 247, (βS)-β-(3,5-difluorophenyl)-4-fluoro-N-(5-fluoro-4-{2-[(2S,6R)-6-methyl-1-{[4-(trifluoromethoxy)phenyl]sulfonyl}piperazin-2-yl]ethyl}pyridin-3-yl)-Nα-(methoxycarbonyl)-L-phenylalaninamide] | 77
2 | COC(=O)N[C@H](C(=O)Nc1cccc(F)c1CC[C@H]1CNCCN1S(=O)(=O)c1ccccc1)[C@@H](c1ccc(Cl)cc1)c1cccc(OC(F)(F)F)c1 [Example 58, (βS)-4-chloro-N-(3-fluoro-2-{2-[(2S)-1-(phenylsulfonyl)piperazin-2-yl]ethyl}phenyl)-Nα-(methoxycarbonyl)-β-[3-(trifluoromethoxy)phenyl]-L-phenylalaninamide] | 42
3 | COC(=O)N[C@H](C(=O)Nc1cccc(F)c1CC[C@H]1CNC[C@@H](C)N1S(C)(=O)=O)[C@@H](c1ccc(Cl)cc1)C1CCOCC1 [Example 183, (βR)-4-chloro-N-(3-fluoro-2-{2-[(2S,6R)-6-methyl-1-(methylsulfonyl)piperazin-2-yl]ethyl}phenyl)-Nα-(methoxycarbonyl)-β-(tetrahydro-2H-pyran-4-yl)-L-phenylalaninamide] | 67
4 | COC(=O)N[C@H](C(=O)Nc1cccc(F)c1CC[C@H]1CNC[C@@H](C)N1S(=O)(=O)c1ccccc1)[C@@H](c1ccc(F)c(F)c1)C1CCOCC1 [Example 293, (βR)-3,4-difluoro-N-(3-fluoro-2-{2-[(2S,6R)-6-methyl-1-(phenylsulfonyl)piperazin-2-yl]ethyl}phenyl)-Nα-(methoxycarbonyl)-β-(tetrahydro-2H-pyran-4-yl)-L-phenylalaninamide] | 8.7
5 | COC(=O)N[C@H](C(=O)Nc1cccc(F)c1CC[C@H]1CNC[C@@H](C)N1S(=O)(=O)c1ccccc1)C1(c2ccc(Cl)cc2)CCOCC1 [Example 275, methyl {(1S)-1-[4-(4-chlorophenyl)tetrahydro-2H-pyran-4-yl]-2-[(3-fluoro-2-{2-[(2S,6R)-6-methyl-1-(phenylsulfonyl)piperazin-2-yl]ethyl}phenyl)amino]-2-oxoethyl}carbamate] | 19
6 | CS(=O)(=O)N1C(COCc2ccccc2)CNC[C@@H]1CCc1c(F)cccc1NC(=O)[C@@H](N)[C@@H](Cc1ccc(F)cc1)c1ccc(Cl)cc1 (stereo partly drawn) [Example 226, (βS)-N-(2-{2-[(2S)-6-[(benzyloxy)methyl]-1-(methylsulfonyl)piperazin-2-yl]ethyl}-3-fluorophenyl)-4-chloro-β-(4-fluorobenzyl)-L-phenylalaninamide] | 1100
7 | CC1(C)CC([C@H](c2ccc(Cl)cc2)[C@H](N)C(=O)Nc2cccc(F)c2CC[C@H]2CNCCN2S(C)(=O)=O)CCO1 (stereo partly drawn) [Example 78, (βR)-4-chloro-β-(2,2-dimethyltetrahydro-2H-pyran-4-yl)-N-(3-fluoro-2-{2-[(2S)-1-(methylsulfonyl)piperazin-2-yl]ethyl}phenyl)-L-phenylalaninamide] | 110
8 | CS(=O)(=O)N1[C@@H](CCc2c(F)cccc2NC(=O)[C@@H](N)C(c2ccc(F)cc2)c2ccc(F)cc2)CNCC12CC2 [Example 367, (S)-2-amino-N-(3-fluoro-2-(2-((S)-4-(methylsulfonyl)-4,7-diazaspiro[2.5]octan-5-yl)ethyl)phenyl)-3,3-bis(4fluorophenyl)propanamide] | 47
9 | C[C@@H]1CNC[C@H](CCc2c(F)cccc2NC(=O)[C@@H](N)C(c2cccc(F)c2)c2cccc(F)c2)N1S(=O)(=O)c1ccccc1 [Example 133, 3-fluoro-N-(3-fluoro-2-{2-[(2S,6R)-6-methyl-1-(phenylsulfonyl)piperazin-2-yl]ethyl}phenyl)-β-(3-fluorophenyl)-L-phenylalaninamide] | 55
10 | N[C@H](C(=O)N[C@@H]1CCCC[C@H]1CC[C@H]1CNCCN1S(=O)(=O)c1ccccc1)C(c1ccc(F)cc1)c1ccc(F)cc1 [Example 353, 4-fluoro-beta-(4-fluorophenyl)-N-[(1R,2S)-2-{2-[(2S)-1-(phenylsulfonyl)piperazin-2-yl]ethyl}cyclohexyl]-L-phenylalaninamide] | 540
11 | O=C(C[C@@H](c1ccc(F)cc1)c1cc(F)cc(F)c1)Nc1cncc(F)c1CC[C@H]1CNCCN1S(=O)(=O)N1CCCC(F)C1 (stereo partly drawn) [Example 333, (3S)-3-(3,5-difluorophenyl)-N-[5-fluoro-4-(2-{(2S)-1-[(3-fluoropiperidin-1-yl)sulfonyl]piperazin-2-yl}ethyl)pyridin-3-yl]-3-(4-fluorophenyl)propanamide] | 64
12 | C[C@@H]1CNC[C@H](CCc2c(F)cccc2NC(=O)[C@@H](N)[C@@H](c2ccc(Cl)cc2)C2CCOCC2)N1S(=O)(=O)c1ccccc1 [Example 116, (βR)-4-chloro-N-(3-fluoro-2-{2-[(2S,6R)-6-methyl-1-(phenylsulfonyl)piperazin-2-yl]ethyl}phenyl)-β-(tetrahydro-2H-pyran-4-yl)-L-phenylalaninamide] | 24
13 | C[C@H]1CNC[C@H](CCc2c(F)cccc2NC(=O)[C@@H](N)C(c2cccc(F)c2)c2cccc(F)c2)N1S(=O)(=O)c1ccccc1 [Example 10, (S)-2-Amino-N-(3-fluoro-2-(2-((2S,6S)-6-methyl-1-(phenylsulfonyl)piperazin-2-yl)ethyl)phenyl)-3,3-bis(3-fluorophenyl)propanamide] | 11
14 | COC(=O)N[C@H](C(=O)Nc1cccc(F)c1CC[C@H]1CNC[C@@H](C)N1S(=O)(=O)c1ccccc1)[C@@H](c1cccc(Cl)c1)C(C)C [Example 208, (βR)-3-chloro-N-(3-fluoro-2-{2-[(2S,6R)-6-methyl-1-(phenylsulfonyl)piperazin-2-yl]ethyl}phenyl)-Nα-(methoxycarbonyl)-β-(1-methylethyl)-L-phenylalaninamide] | 42
15 | N[C@H](C(=O)Nc1cccc(F)c1CCC1CNCCN1S(=O)(=O)c1ccccc1)C(c1cc(F)cc(F)c1)c1cc(F)cc(F)c1 (stereo partly drawn) [Example 34, β-(3,5-difluorophenyl)-3,5-difluoro-N-(3-fluoro-2-{2-[1-(phenylsulfonyl)piperazin-2-yl]ethyl}phenyl)-L-phenylalaninamide] | 16
16 | COC(=O)N[C@H](C(=O)Nc1cccc(F)c1CC[C@H]1CNC[C@@H](C)N1S(=O)(=O)c1ccccc1)C(c1cccc(F)c1)c1cccc(F)c1 [Example 134, 3-fluoro-N-(3-fluoro-2-{2-[(2S,6R)-6-methyl-1-(phenylsulfonyl)piperazin-2-yl]ethyl}phenyl)-β-(3-fluorophenyl)-Nα-(methoxycarbonyl)-L-phenylalaninamide] | 63
17 | COC(=O)N[C@H](C(=O)NC1CCCC1CC[C@H]1CNCCN1S(C)(=O)=O)C(c1ccc(F)cc1)c1ccc(F)cc1 (stereo partly drawn) [Example 352, 4-fluoro-beta-(4-fluorophenyl)-Nalpha-(methoxycarbonyl)-N-(2-{2-[(2S)-1-(methylsulfonyl)piperazin-2-yl]ethyl}cyclopentyl)-L-phenylalaninamide] | 190
18 | O=C1COc2ccc(S(=O)(=O)N3CCNC[C@@H]3CCc3c(F)cncc3NC(=O)C[C@@H](c3ccc(F)cc3)c3cc(F)cc(F)c3)cc2N1 [Example 308, (3S)-3-(3,5-difluorophenyl)-N-[5-fluoro-4-(2-{(2S)-1-[(3-oxo-3,4-dihydro-2H-1,4-benzoxazin-6-yl)sulfonyl]piperazin-2-yl}ethyl)pyridin-3-yl]-3-(4-fluorophenyl)propanamide] | 180
